Consider eleven compounds from patent US20140341939A1 (NATIONAL UNIVERSITY CORPORATION KOCHI UNIVERSITY, priority 2011, published 2014).

Where a SMILES comes first, the peptide text is derived from it. Where no end group is shown, it is not given here. The star is where a group is joined. Biotin = O=C1N[C@H]2[C@H](CS[C@H]2CCCCC(=O)*)N1

In one data set the test system is serum peptidase. Briefly: Degradation of peptide in 10% fresh mouse serum (HPLC of remaining peptide). The conditions noted are these: 10% fresh mouse serum, up to 16 hr (FIG. 21).
Data set [1] relates to DO11.10 cells. Briefly: Antigen presentation by F2-IA^d vascular endothelial cells (CD69 expression by DO11.10 cells). The class given is cell-based, mouse. As for the experimental part:
EL4 cells were first opsonized with RGD peptide. Next, 5 mg/ml OVA protein was loaded on the cytoplasm by osmotic pressure loading. After sufficient washing, 2×10^6 EL4 cells were added to a confluent culture medium of F2-IA^d cells on a 24-well plate (cultured for 2 days in advance in the presence of 500 U/ml rmIFN-γ). As a control, EL4 and EG7 mock-loaded with PBS were RGD-modified in the same manner and used. EL4 and other target cells were added to F2-IA^d, and the cell mixture was cultured for 24 hr. As for the control well wherein F2-IA^d cells were directly loaded with OVAII peptide, the cells were pulsed with peptide for 2 hr at the end of the culture. After removing the non-adherent cells and debris of dead cells, the surface of the adhered F2-IA^d cells was sufficiently washed. In an antigen presentation inhibitory experiment using chloroquine, 100 μM chloroquine was added 30 min before addition of EL4, EL4 loaded with OVA or 0.25 mg/ml OVA protein. Furthermore, F2-IA^d cells were cultured for 3 days in the continuous presence of chloroquine.
Whether the F2-IA^d cells presented the target antigen polypeptide on the cell surface was evaluated by monitoring the expression of CD69 by DO11.10 cells. The antigen-presenting F2-IA^d cells and DO11.10 cells were mixed and centrifuged to contact the cells with one another. After 6 hr and 24 hr, the cells were stained with biotin-labeled anti CD69 mAb (H1.2F3, BD Biosciences), and the expression of CD69 by DO11.10 cells was detected by flow cytometry (stained positive with FITC-labeled KJ1.26 (anti clonotypic TCR mAb)).

A short description of data set [2]: TBS containing 10% fresh mouse serum. To be noted: 37° C., up to 16 hr.
For data set [3], the system named is DO11.10 cells. As to the kind of experiment: Growth of CD4 T cells: proliferation of DO11.10 cells by OVII modified peptides (3H-thymidine). To be noted: for sensitization activity compared to OVII+ (in words): effect of lysine, FIG. 20. In kind it is cell-based, mouse.

Protocol for serum peptidase: Peptide was digested in TBS containing 10% fresh mouse serum or fresh human serum. After incubation at 37° C. for a given time, 1% trifluoro acid was added to remove various serum proteins by precipitation. After short centrifugation, the soluble fraction was analyzed by reversed-phase HPLC using a C18 analysis column. To normalize variation in the total amount of the peptide loaded for each HPLC, the peak of non-protein components contained in the serum, which is absorbed at the wavelength of 220 nm, was used as an internal control. The peak area of undigested peptides was quantitatively monitored by Chromatopac C-R8A (Shimadzu Corp., Kyoto, Japan), and the amount of the remaining peptide was calculated.
Therefore, the inventor examined the digestion resistance of peptide in vitro in a 10% fresh mouse serum. The amount of a remaining undigested peptide was quantified by HPLC.

In the case of `CC[C@H](C)[C@H](N)C(=O)N[C@@H](CO)C(=O)N[C@@H](CCC(N)=O)C(=O)N[C@@H](C)C(=O)N[C@H](C(=O)N[C@@H](Cc1c[nH]cn1)C(=O)N[C@@H](C)C(=O)N[C@@H](C)C(=O)N[C@@H](Cc1c[nH]cn1)C(=O)N[C@@H](C)C(=O)N[C@@H](CCC(=O)O)C(=O)N[C@H](C(=O)N[C@@H](CC(N)=O)C(=O)N[C@@H](CCC(=O)O)C(=O)N[C@@H](C)C(=O)N1CCC[C@H]1C(=O)NCCC(=O)O)[C@@H](C)CC)C(C)C` [OVIIPβ] (HELM PEPTIDE1{I.S.Q.A.V.H.A.A.H.A.E.I.N.E.A.P.[bAla]}$$$$V2.0; N-terminus and C-terminus assumed), the “digestion resistance to serum peptidases (in words)” value with serum peptidase is “the protection effect was further enhanced, and the amount of the peptide remaining 16 hr later increased”.
On to `CCN(CC)CCCC(C)Nc1ccnc2cc(Cl)ccc12` (stereo not shown) [chloroquine], for which the “antigen presentation of OVA-loaded EL4 by F2-IA^d cells” value with DO11.10 cells [1] (100 μM chloroquine (FIG. 4)) was “sensitive to chloroquine”. Also, in the data set on DO11.10 cells [1] (100 μM chloroquine (FIGS. 3, 4)), the “presentation of OVA protein by F2-IA^d cells” value is “decreased”.
Consider “HELM PEPTIDE1{I.S.Q.A.V.H.A.A.H.A.E.I.N.E.A.P.[bAla]}$$$$V2.0 (N-terminus and C-terminus assumed; SMILES CC[C@H](C)[C@H](N)C(=O)N[C@@H](CO)C(=O)N[C@@H](CCC(N)=O)C(=O)N[C@@H](C)C(=O)N[C@H](C(=O)N[C@@H](Cc1c[nH]cn1)C(=O)N[C@@H](C)C(=O)N[C@@H](C)C(=O)N[C@@H](Cc1c[nH]cn1)C(=O)N[C@@H](C)C(=O)N[C@@H](CCC(=O)O)C(=O)N[C@H](C(=O)N[C@@H](CC(N)=O)C(=O)N[C@@H](CCC(=O)O)C(=O)N[C@@H](C)C(=O)N1CCC[C@H]1C(=O)NCCC(=O)O)[C@@H](C)CC)C(C)C)”, for which the cleaved bond result in data set [2] was “Ile-S, major”.
Turning to ISQAVHAAHAEINEAPA, the cleaved bond result in data set [2] is recorded as “Ile-S, major”.
In the case of PSK^bioISQAVHAAHAEINEARK^bioPβA, the fragment found result in data set [2] is on record as “product which has lost the biotin molecule on the N terminal side, major”.
On to SKISQAVHAAHAEINEAR [KOVII+], for which the “sensitization activity compared to OVII+ (in words)” value in the data set on DO11.10 cells [3] is reported as “no difference in the sensitization activity compared to OVII+”.
Same read-out and setting: next, SKISQAVHAAHAEINEARK [KOVII+K]: “no difference in the sensitization activity compared to OVII+”.
As to SKISQAVHAAHAEINEARK^bioG, in data set [2], the cleaved bond result is “Ser-K, major” and the fragment found result is “product missing one biotin”.
As to “SK^bioISQAVHAAHAEINEAR (H-SK(Biotin)ISQAVHAAHAEINEAR-OH; N-terminus and C-terminus assumed; SMILES CC[C@H](C)[C@H](NC(=O)[C@H](CCC(=O)O)NC(=O)[C@H](C)NC(=O)[C@H](Cc1c[nH]cn1)NC(=O)[C@H](C)NC(=O)[C@H](C)NC(=O)[C@H](Cc1c[nH]cn1)NC(=O)[C@@H](NC(=O)[C@H](C)NC(=O)[C@H](CCC(N)=O)NC(=O)[C@H](CO)NC(=O)[C@@H](NC(=O)[C@H](CCCCNC(=O)CCCC[C@@H]1SC[C@@H]2NC(=O)N[C@@H]21)NC(=O)[C@@H](N)CO)[C@@H](C)CC)C(C)C)C(=O)N[C@@H](CC(N)=O)C(=O)N[C@@H](CCC(=O)O)C(=O)N[C@@H](C)C(=O)N[C@@H](CCCNC(=N)N)C(=O)O)”, in data set [2], the cleaved bond result is “A-Arg, major” and the fragment found entry is “product missing one biotin”.
Turning to SK^bioISQAVHAAHAEINEARK^bio, in data set [2], the cleaved bond result is “A-R, major” and the fragment found result is on record as “product missing one biotin”.
“SK^bioISQAVHAAHAEINEARK^bio (SK(Biotin)ISQAVHAAHAEINEARK(Biotin)) [bOVII+b]”: the “activity to induce proliferation of DO11.10 Th cell relative to KOVII+ and KOVII+K, respectively” value in the data set on DO11.10 cells [3] (bOVII+ vs KOVII+, bOVII+b vs KOVII+K (FIG. 20)) is “about 10 fold”. Moreover, the “increase in sensitization activity compared to OVIIβ, OVIIPA” value in the data set on DO11.10 cells [3] (relative to peptides with Pro at second position from C terminal and/or β-Ala at C terminal (OVIIβ, OVIIPA, FIG. 11)) was 100 fold.
